According to patent US20100316678A1, “COMBINATION METHODS AND COMPOSITIONS FOR TREATMENT OF NEUROPATHIC PAIN” (CNSBio Pty Ltd., priority 2007, published 2010):
Marks after values point to notes of the source that are not given here.

Assays:
Assay type in all cases: in vivo, male Wistar rats
[1] = Open field activity monitor, test for sedation in normal rats; conditions: for largest non-sedating dose: intraperitoneally, rats; for open field activity monitor, mean: male, Wistar, rat, in vivo, ip, 20 min
Procedure: (§1) Experiments were performed on male Wistar rats (wt 150-220g). Two series of experiments were performed in an observer blinded fashion with saline (negative) controls and GABAPentin (positive) controls. The investigations were in two stages: • 1. a range of doses of aprepitant (an example of a NK antagonist) given alone and in combination with flupirtine (an example of an inhibitor of neuronal excitation) were tested for sedating effects using the open field activity monitor.
Individual rats (several rats per treatment group) were placed in an open field activity monitor in which the movement of the rat could be monitored remotely by the frequency and number of interruption of infrared beams directed across the box in a grid. The activity in the monitor was measured for periods of 20 minutes in each rat. This was performed in groups of rats that received (1) control injection of saline, (2) GABAPentin 50 mg/kg as the maximum dose of that drug found previously not to be sedating (drug positive control) administered intraperitoneally, or (3) after pharmacological interventions that involve the administration of aprepitant and flupirtine given at a range of doses alone and in combination. If a rat was sedated by a drug or drug combination, the movements recorded were less. Since rats become habituated to the open field monitor, only one experiment was performed on each rat with this test.
These were the upper dose limits for subsequent experiments investigating the analgesic effects of these drugs administered together in combinations.

[2] = tested on: streptozotocin-induced diabetic neuropathy; test: Reversal of heat hyperalgesia (paw flick, Hargreaves) in streptozotocin-induced diabetic neuropathy
Procedure: Male Wistar rats (wt 50-70 g) were given streptozotocin 150 mg/kg intraperitoneally. […] The largest non-sedating doses of GABAPentin (50 mg/kg intraperitoneally) and aprepitant (6.25 mg/kg intraperitoneally) were assessed for possible analgesic effect by measurement of the percentage reversal of the hyperalgesia caused by the diabetes assessed by withdrawal from noxious heat applied to the hind paw.
Experiments were performed in an observer blinded fashion with parallel saline treated controls:

[3] = tested on: streptozotocin-induced diabetic neuropathy; test: Reversal of allodynia (von Frey hair) in streptozotocin-induced diabetic neuropathy; conditions: each drug alone at non sedating doses, intraperitoneal
Procedure: as §1
Rats were injected intraperitoneally with streptozotocin (150 mg per kg total dose—Sapphire Bioscience) dissolved in sodium chloride 0.9%. The induction of diabetes was confirmed one week after injection of streptozotocin and weekly thereafter by measurement of tail vein blood glucose levels with Ames Glucofilm test strips and Ames Glucometer blood glucose meter. Only animals with blood glucose levels greater than or equal to 15 mM and maintained continuously for 5 weeks were deemed to be diabetic. […] At the end of five weeks these rats were assessed with the methods of measuring hyperalgesia (paw flick—Hargreaves method) and allodynia (withdrawal from von Frey Hair stimulation at normally non noxious intensity) to elucidate the antinociceptive effects of flupirtine and aprepitant given intraperitoneally alone and in combination (with saline and GABApentin for comparison).

Row | SMILES | largest non-sedating dose [1] | reversal of hyperalgesia (statistics) ([2]; GABAPentin 50 mg/kg alone vs saline, P<0.01) | percentage reversal of the hyperalgesia, mean ([2]; GABAPentin 50 mg/kg intraperitoneally alone, noxious heat to hind paw, n=17) | open field activity monitor, mean ([1]; 6.25 mg/kg) | open field activity monitor, mean ([1]; 12.5 mg/kg) | open field activity monitor, mean ([1]; 25 mg/kg) | open field activity monitor, mean ([1]; 50 mg/kg) | open field activity monitor, mean ([1]; 100 mg/kg) | antinociception with respect to allodynia [3]
1 | NCC1(CC(=O)O)CCCCC1 [GABAPentin] | 50 mg/kg | statistically significant reversal of hyperalgesia | 27.67 |  |  |  |  |  | 
2 | C[C@@H](O[C@H]1OCCN(Cc2n[nH]c(=O)[nH]2)[C@H]1c1ccc(F)cc1)c1cc(C(F)(F)F)cc(C(F)(F)F)c1 [aprepitant] | 6.25 mg/kg |  |  | 869.0 | 915.0* | 964.6* | 976.6* | 1058.2 | Neither drug at non sedating doses causes significant antinociception
